Experimental data taken from US20200046619A1, “Deodorizing Composition Comprising Zinc Neodecanoate” (GIVAUDAN SA, priority 2016, published 2020).

Assays:
[1] = tested on: subject's axilla malodour; test: Sensory test comparing zinc neodecanoate and zinc ricinoleate: perceived malodour intensity of axillae rated by trained panel; type: in vivo, human; details: for perceived malodour intensity: 0-100 line scale, 24 hours after application of 1.0 g aerosol (4% zinc salt, 12% cyclomethicone, 84% propellant) to axilla, 10 male subjects
Procedure: Aerosols were prepared using the following two test formulations, respectively: • 4% zinc neodecanoate, 12% cyclomethicone, 84% propellant • 4% zinc ricinoleate, 12% cyclomethicone, 84% propellant (propellant=isobutane/propane mix)
5 days prior to testing, the male subjects substituted their normal body wash with an unperfumed product (Sanex 0% Bodywash) and were asked to only use a specific deodorant supplied (Lynx Attract for Him).
On the morning before the test, the male subjects were asked to shower using an unperfumed shower gel provided and not use any antiperspirant product or apply any other fragranced products.
Subjects reported to a panel suite in the morning in two groups for test product application.
The administrator applied 1.0 g of each product to each subject's axilla. Each subject wore both of the test formulations (one on each axilla region). The manner in which each test formulation was applied (left or right axilla) was randomised. Each of a subject's axilla was then coded with a random code number.
The subjects were asked not to shower until after the test had been completed the next day. The subjects were also provided with a list of rules, by which they had to abide for the duration of the test. The rules included no swimming and no gym activity between test formulation application and assessment.
The subjects' axillae were thereafter tested by sensory panellists. The members of the sensory panels had been selected on a basis of their olfactory sensory acuity and had thereafter received training for a period of 4-6 months. […]
The sensory panellists were asked to rate the perceived malodour intensity for each of the subject's axilla using a 0-100 line scale. The order of samples assessed was pre-determined using a balanced randomisation. The axillae were assessed in a sequential monadic way. […]
The subjects were separated into two groups to be assessed by the panellists and each group was assessed by 22 panellists.
The data was analysed using an analysis of variance and multiple comparison test with a confidence level of 95%.

[2] = Solubility test of zinc salts in model aerosol base formulation; type: physicochemical; details: 4% zinc salt, 12% cyclomethicone, 84% pentane; agitated several hours at room temperature, stood overnight
Source text: The solubility of several zinc salts was explored using the following model aerosol base formulation: • 4% zinc salt • 12% cyclomethicone • 84% pentane
(Pentane was used as a surrogate for isobutane/propane mix as it is easier to handle in a laboratory.)
Each salt and aerosol formulation was placed in a sealed glass vial that was agitated for several hours at room temperature. The resulting suspensions/solutions were allowed to stand overnight and any remaining solid matter present was noted.

[3] = White marks: visible solid residue on black cloth after aerosol spraying; type: physicochemical; details: approximately 3 g aerosol (4% zinc neodecanoate, 12% cyclomethicone, 84% propellant) dispensed; compared with zinc ricinoleate and aluminium chlorohydrate aerosols
Procedure: Aerosols were prepared using the following three test formulations, respectively: • 4% zinc neodecanoate, 12% cyclomethicone, 84% propellant • 4% zinc ricinoleate, 12% cyclomethicone, 84% propellant • 10% aluminium chlorohydrate, 0.8% disteardimonium hectorite, 12% cyclomethicone, 76.2% propellant (propellant=isobutane/propane mix)
Several card templates were prepared where a large X-shaped hole was present in each template. Each template was then placed over a black piece of cloth. The aerosols were shaken well, and then approximately 3 g of one of the three aerosols was dispensed over each template hole. Several minutes were allowed for any propellant to evaporate and the presence of any visible solid residues was noted.

Substance	perceived malodour intensity [1]	malodour intensity compared with underarms treated with zinc ricinoleate ([1]; analysis of variance and multiple comparison test, confidence level 95%, 24 hours after application)	remaining solid matter present (solubility) [2]	visible solid residue on black cloth [3]
zinc neodecanoate	12.1 (+/−0.8)	significantly lower malodour intensity	without any solid present	did not leave a powdered residue
zinc ricinoleate [reference compound]	14.0 (+/−0.8)			
